This passage reports TGI and GI50 results from PubChem BioAssay (NCI).

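Cultured in 96-well plates, cells were exposed to test compound for 48 hours across five concentrations. GI50 marks 50% less growth. Definition used: TGI = concentration required for complete inhibition of growth.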

Some test systems named below: UACC-257 melanoma; U251 CNS; MOLT-4 leukemia; EKVX NSCLC; HCT-15 colon; A498 renal; HOP-92 NSCLC; TK-10 renal; UO-31 renal; OVCAR-3 ovarian.
Assay in all cases: NCI anticancer screen, dose series, 48 h

In the case of `C=C(C(=O)C(=O)Oc1ccc(Cl)cc1)C(=O)c1ccc(C)cc1`, the TGI in the assay with UACC-257 melanoma was above 100 µM; in the assay on U251 CNS, 46.2 µM; in the assay with MOLT-4 leukemia, above 100 µM; with EKVX NSCLC it was above 100 µM; in the assay with HCT-15 colon it was above 100 µM; with A498 renal it was above 100 µM. Moreover, the TGI with HOP-92 NSCLC, in the assay on TK-10 renal, in the assay with UO-31 renal and in the assay with OVCAR-3 ovarian was above 100 µM throughout.
For the compound `C/C(CCOC1CCCCO1)=C(\C)[Si](C)(C)C` (stereo not given), the TGI with UACC-257 melanoma, in the assay on U251 CNS, in the assay on MOLT-4 leukemia, with EKVX NSCLC, in the assay with HCT-15 colon and in the assay on A498 renal was above 100 µM each time. Further, the TGI in the assay with HOP-92 NSCLC, in the assay with TK-10 renal, in the assay with UO-31 renal and in the assay with OVCAR-3 ovarian was above 100 µM throughout.
Consider `CCOC(=O)c1csc(NC(=O)CCN(CC)CC)n1`, for which the TGI was above 100 µM in the assay with UACC-257 melanoma; above 100 µM with U251 CNS; 90.3 µM in the assay on MOLT-4 leukemia; above 100 µM with EKVX NSCLC; 75.3 µM in the assay on HCT-15 colon; above 100 µM in the assay on A498 renal. The TGI with HOP-92 NSCLC was 69.3 µM; in the assay on TK-10 renal, 62.8 µM; with UO-31 renal it was above 100 µM; with OVCAR-3 ovarian, 69 µM.
Regarding `O=C1C(Cl)=C(N2CCN(C3=C(Cl)C(=O)c4ccccc4C3=O)CC2)C(=O)c2ccccc21`, the TGI with UACC-257 melanoma is 2.78 µM; in the assay on U251 CNS, 6.19 µM; in the assay with MOLT-4 leukemia, 1.69 µM; in the assay on EKVX NSCLC, 4.91 µM; in the assay on HCT-15 colon, 3.07 µM; with A498 renal, 13.7 µM. Besides, the TGI in the assay on HOP-92 NSCLC stood at 2.4 µM; with TK-10 renal, 3.42 µM; in the assay on UO-31 renal, 3.39 µM; in the assay with OVCAR-3 ovarian, 3.02 µM.
On to `Oc1ccc(/C=C/c2cc(O)cc(O)c2)cc1`, for which the TGI in the assay with UACC-257 melanoma, with U251 CNS, in the assay with MOLT-4 leukemia, with EKVX NSCLC, in the assay on HCT-15 colon and in the assay on A498 renal was above 100 µM throughout. Also, the TGI in the assay on HOP-92 NSCLC, in the assay with TK-10 renal, with UO-31 renal and in the assay with OVCAR-3 ovarian was above 100 µM throughout.
With `COC(=O)C1C(C(=O)OC)N(Cc2ccccc2)C(=O)N1Cc1ccccc1` (stereo not given), the TGI with UACC-257 melanoma, in the assay on U251 CNS, in the assay on MOLT-4 leukemia, in the assay on EKVX NSCLC, with HOP-92 NSCLC and with TK-10 renal was above 100 µM in each case. Moreover, the TGI in the assay on UO-31 renal and in the assay with OVCAR-3 ovarian was above 100 µM in each case.
Take `C[C@]12CC[C@@H]3c4ccc(O)cc4CC[C@H]3[C@@H]1C/C(=C\c1ccncc1)C2=O`: the TGI in the assay with UACC-257 melanoma was above 100 µM; with U251 CNS, above 100 µM; with MOLT-4 leukemia, above 100 µM; with EKVX NSCLC, above 100 µM; in the assay on HCT-15 colon it was above 100 µM; with A498 renal, 91.4 µM. For the same compound, the TGI in the assay on HOP-92 NSCLC is above 100 µM; in the assay with TK-10 renal, above 100 µM; in the assay with UO-31 renal it was above 100 µM; with OVCAR-3 ovarian it was 50.5 µM.
Take `CCCc1cc(=O)c2c(C)c3[nH]c4ccc(Cl)cc4c3c(C)c2[nH]1`: the TGI in the assay on UACC-257 melanoma was 4.74 µM; in the assay on U251 CNS, 3.65 µM; in the assay on MOLT-4 leukemia, above 100 µM; with EKVX NSCLC it was 7.72 µM; in the assay on HCT-15 colon, 3.37 µM; in the assay with A498 renal it was 2.92 µM. For the same compound, the TGI in the assay on HOP-92 NSCLC turned out to be 5.1 µM; in the assay with TK-10 renal, 4.06 µM; in the assay with UO-31 renal it was 3.34 µM.
Consider `N.N.N.O=[N+]([O-])[O-].O=[N+]([O-])[O-].O=[N+]([O-])[O-].O=[N+]([O-])[O-].[Co+3]`, for which the TGI in the assay on UACC-257 melanoma, in the assay on U251 CNS, in the assay on MOLT-4 leukemia, in the assay on EKVX NSCLC, with HCT-15 colon and with A498 renal was above 100 µM in each case. In addition, the TGI in the assay with HOP-92 NSCLC, with TK-10 renal, in the assay on UO-31 renal and in the assay on OVCAR-3 ovarian was above 100 µM throughout.
With `COc1ccc2[nH]c(O)c(/C=c3/cc4c(c(-c5cc(OC)c(OC)c(OC)c5)n3)=Nc3ccccc3-4)c2c1`, the GI50 is 29.7 µM in the assay with UACC-257 melanoma; 3.53 µM with U251 CNS; 1.94 µM with MOLT-4 leukemia; above 100 µM in the assay with EKVX NSCLC; 5.3 µM with HCT-15 colon; 1.7 µM in the assay on A498 renal. Further, the GI50 with HOP-92 NSCLC was 3.43 µM; with TK-10 renal it was 18.5 µM; in the assay on UO-31 renal it was 6.62 µM; with OVCAR-3 ovarian it was 8.48 µM. Besides, the TGI in the assay with UACC-257 melanoma is above 100 µM; in the assay on U251 CNS, above 100 µM; in the assay with MOLT-4 leukemia, 10.7 µM; in the assay on EKVX NSCLC it was above 100 µM; in the assay on HCT-15 colon, above 100 µM; in the assay with A498 renal, 8.72 µM. Moreover, the TGI in the assay with HOP-92 NSCLC was 99.2 µM; in the assay with TK-10 renal, above 100 µM; in the assay with UO-31 renal, above 100 µM; in the assay with OVCAR-3 ovarian, above 100 µM.
`C#CCCCCC#Cc1ccccc1C(=O)OC`: the TGI in the assay with UACC-257 melanoma is above 100 µM; with U251 CNS, above 100 µM; with MOLT-4 leukemia, 38.3 µM; in the assay on EKVX NSCLC it was above 100 µM; with HCT-15 colon, above 100 µM; in the assay on A498 renal, above 100 µM. Also, the TGI in the assay on HOP-92 NSCLC was 86 µM; with TK-10 renal, above 100 µM; in the assay on UO-31 renal it was above 100 µM; with OVCAR-3 ovarian, above 100 µM.
Regarding `NC(N)=NS(=O)(=O)c1ccc(NCc2c3ccccc3[n+]([O-])c3ccccc23)cc1`, the TGI in the assay with UACC-257 melanoma was above 100 µM; in the assay on U251 CNS, above 100 µM; with MOLT-4 leukemia, 43.8 µM; in the assay with EKVX NSCLC, above 100 µM; in the assay with HCT-15 colon it was 74.4 µM; with A498 renal, above 100 µM. For the same compound, the TGI in the assay with HOP-92 NSCLC was 28.5 µM; in the assay on TK-10 renal it was above 100 µM; in the assay on UO-31 renal it was 73.8 µM; in the assay on OVCAR-3 ovarian, above 100 µM.
Consider `CC(C)OP(=O)(OC(C)C)c1c(Nc2ccccc2)n[nH]c1N`, for which the TGI in the assay with UACC-257 melanoma, with U251 CNS, with MOLT-4 leukemia, with EKVX NSCLC, in the assay with HCT-15 colon and in the assay on A498 renal was above 100 µM in each case. The TGI in the assay on HOP-92 NSCLC, in the assay with TK-10 renal, in the assay with UO-31 renal and in the assay with OVCAR-3 ovarian was above 100 µM in each case.
As for `O=C(O)CC/C(=N\Nc1nsc2ccccc12)c1ccccc1`, the TGI was above 100 µM with UACC-257 melanoma; above 100 µM in the assay with U251 CNS; 91.6 µM in the assay with MOLT-4 leukemia; above 100 µM with EKVX NSCLC; above 100 µM with HCT-15 colon; above 100 µM with HOP-92 NSCLC. For the same compound, the TGI was above 100 µM in the assay with TK-10 renal, above 100 µM in the assay with UO-31 renal and 75.3 µM in the assay on OVCAR-3 ovarian.
For the compound `CCN1c2ccccc2-n2c(C)nnc2-c2c1n[nH]c2-c1ccccc1`, the TGI with UACC-257 melanoma was above 100 µM; in the assay on U251 CNS it was 46.8 µM; in the assay with MOLT-4 leukemia, 50.7 µM; in the assay with EKVX NSCLC, above 100 µM; in the assay with HCT-15 colon, above 100 µM; in the assay with HOP-92 NSCLC it was above 100 µM. Besides, the TGI in the assay on TK-10 renal, with UO-31 renal and with OVCAR-3 ovarian was above 100 µM throughout.
